Assays:
HT-p21-9 cells = settings: previously reported (Demidenko 2009); cited from earlier work
mTOR pathway [1] = settings: previously reported (Demidenko 2009); cited from earlier work
mTOR pathway [2] = assay: Immunoblot for p53, p-S6, p-S6K in WI-38-tert fibroblasts; type: cell-based, human
Method: (§1) FIG. 4. […] HT-p21-a cells were treated with IPTG and infected with Ad-p53. After 3 days, cells were photographed (original magnification ×200): Upper panel. Under blue light to visualize cells expressing p53 (green cells). Lower panel. Under visible light to visualize all cells. Red arrows indicate cells lacking p53 expression. All of these cells show large, flat cell morphology. Green arrows indicate cells expressing p53. b-d. […] After 1 day, cells were lysed and immunoblot was performed as described in Methods for Example 1. c. […] Cells were then stained for beta-Gal activity and microphotographed. Scale bar—50 μm.d. […] Cells were then trypsinized and counted. […] Results are shown as percent of control.
FIG. 12. […] Immunoblot for p53, p-S6, p-S6K, S6 and actin was performed as described in Methods for Example 1.
Immunoblot analysis. Proteins were separated on 4-15% gradient Tris-HCl gels (Bio-Rad). The following antibodies were used: mouse anti-actin from Santa Cruz Biotechnology, rabbit anti-phospho-S6 (Ser240/244) and (Ser235/236), mouse anti-S6, mouse anti-phospho-p70 S6 kinase (Thr389), mouse anti-p21 and anti-p53, rabbit anti-phospho-4E-BP1 (Thr37/46) from Cell Signaling; mouse anti-4E-BP1 from Invitrogen, mouse anti-p53 (Ab-6) from Calbiochem.

WI-38-tert cells = assay: Senescence / quiescence in WI-38-tert fibroblasts; type: cell-based, human; settings: compound alone
Method: as §1
FIG. 11. Effects of Ad-p21 and Ad-p53 on senescent morphology in WI-38-tert fibroblasts. WI-38-tert cells were infected with either p21-expressing adenovirus (Ad-p21) or p53-expressing adenovirus (Ad-p53) or both. After 3 days, cells were stained for beta-Gal.
Cell lines and reagents. HT-p21-9 and HT-p21-a cells are derivatives of HT1080 human fibrosarcoma cells, where p21 expression can be turned on or off using isopropyl-thio-galactosidase (IPTG) (7, 16, 28, 29, 36). […] HT-p16 cells are derivatives of HT1080 cells in which p16 expression can be turned on or off using IPTG (16, 36). WI-38-Tert, WI-38 are fibroblasts immortalized by telomerase. HT-p21-GSE56 cells: p53 inhibiting peptide GSE56 (18) was introduced into HT1080 p21-9 cells via a retroviral vector LXSE (37). Cells were grown in high glucose DMEM with 10% FC2 serum. WI-38-tert cells were grown in low glucose DMEM with 10% FCS. Rapamycin was obtained from LC Laboratories (Woburn, Mass.). IPTG (final concentration of 50 μg/ml) and FC2 were obtained from Sigma-Aldrich (St. Louis, Mo.).
Beta-galactosidase staining Beta-gal staining was performed using Senescence-galactosidase staining kit (Cell Signaling Technology).

HT-p21 cells [3] = assay: Colony formation assay after IPTG with or without rapamycin; type: cell-based, human; settings: IPTG plus rapamycin 3 days, washed; versus IPTG alone
[4] = test system: S6 phosphorylation, a marker of mTOR activity; assay: Immunoblot for p-S6, S6 and p21 in IPTG-treated HT-p21 cells, rapamycin; type: cell-based, human; settings: IPTG plus rapamycin, 3 days
Method: (§2) FIG. 18. Correlation between S6 phosphorylation, hypertrophy and loss of proliferative potential in senescent cells. HT-p21 cells were plated in 6 well plates and treated with IPTG plus the increasing concentrations of rapamycin (from 0.16 to 500 nM). At concentration 0, cells were treated with IPTG alone. A. Cellular hypertrophy: protein and GFP. After 3 days, soluble protein and GFP were measured per well. [Note: in non-proliferating cells, protein/well is a measure of protein/cells]. Results are shown as percent of IPTG alone (0) without rapamycin. B. After 3 days, cells were lysed and immunobloted for p-S6, S6 and p21.
FIG. 24. Induction of p21 by IPTG. HT-p21 cells were plated in 6 well plates and treated with IPTG with or without rapamycin as indicated. The next day, cells were lysed and immunoblot for p-S6, S and p21 was performed as described in Methods.
Immunoblot analysis. Cells were lysed and soluble proteins were harvested as previously described. […] Cells were counted on a Coulter Z1 cell counter (Hialeah, Fla.). […] Plates were photographed and the number of colonies were determined as previously described. […] Thereafter, cells were washed in PBS, and the number of -galactosidase activity-positive cells (blue staining) were counted under bright field illumination.

HT-p21 cells [5] = assay: Cellular hypertrophy (protein and GFP per cell) in IPTG-treated HT-p21 cells, rapamycin dose response; type: cell-based, human; settings: this particular cell line
Method: as §2
Cell lines and reagents. In HT-p21 cells, p21 expression can be turned on or off using […] (IPTG). HT-p21 cells were cultured in DMEM medium supplemented with FC2 serum. Rapamycin was obtained from LC Laboratories and dissolved in DMSO as 2 mM solution and was used at final concentration of 500 nM, unless otherwise indicated. IPTG and FC2 were obtained from Sigma-Aldrich (St. Louis, Mo.). IPTG was dissolved in water as 50 mg/ml stock solution and used in cell culture at final concentration of 50 μg/ml.

HT-p21 cells [6] = assay: Preservation of proliferative competence (PC), cell counting after wash; type: cell-based, human
Method: C. PC: preservation of proliferative competence. After 3 days, cells were washed to remove IPTG and RAPA. Cells were incubated for additional 5 days in the fresh medium and then were counted. Results are shown as percent of IPTG alone (0) without rapamycin.
FIG. 20. The dynamics of cell numbers. 500 HT-p21 cells were plated in 12 well plates. On the next day, either IPTG alone (I) or IPTG plus rapamycin (I+R) were added. After 3 days, plates were washed (I/w and I+R/w) or left unwashed. Cells were counted at days 1, 3, 6 and 9. Upper panel: linear-scale. Lower panel: log-scale. Open and closed squares: IPTG and IPTG plus Rapa, respectively. Open and closed circles: IPTG washed (I/w) and IPTG plus Rapa washed (I+R/w), respectively.
Immunoblot analysis. Cells were lysed and soluble proteins were harvested as previously described. Immunoblot analysis was performed using mouse monoclonal anti-p21, mouse monoclonal anti-phospho-S6 Ser240/244 (Cell Signaling, MA, USA), rabbit polyclonal anti-S6 (Cell Signaling, MA, USA) and mouse monoclonal anti-tubulin Ab as previously described. Cell counting. Cells were counted on a Coulter Z1 cell counter (Hialeah, Fla.). […] Plates were photographed and the number of colonies were determined as previously described. […] Thereafter, cells were washed in PBS, and the number of -galactosidase activity-positive cells (blue staining) were counted under bright field illumination.

For `N#CC(=C(/N)Sc1ccccc1N)/C(C#N)=C(\N)Sc1ccccc1N` [U0126], the cellular senescence (HT-p21-9 cells) is listed as “suppress cellular senescence” and the “mTOR pathway in HT-p21-9 cells, measured by phosphorylation of S6” value (mTOR pathway [1]) is listed as “deactivate the mTOR pathway”.
For `COc1cccc2c1C(=O)c1c(O)c3c(c(O)c1C2=O)C[C@@](O)(C(=O)CO)C[C@@H]3O[C@H]1C[C@H](N)[C@H](O)[C@H](C)O1` [doxorubicin], the “inhibition of mTOR” value (mTOR pathway [2]) was “does not inhibit mTOR” and the “type of arrest in WI-38-tert cells” value (WI-38-tert cells) was “caused senescence in WI-38-tert cells”.
For `CO[C@H]1C[C@@H]2CC[C@@H](C)[C@@](O)(O2)C(=O)C(=O)N2CCCC[C@H]2C(=O)O[C@H]([C@H](C)C[C@@H]2CC[C@@H](O)[C@H](OC)C2)CC(=O)[C@H](C)/C=C(\C)[C@@H](O)[C@@H](OC)C(=O)[C@H](C)C[C@H](C)/C=C/C=C/C=C/1C` [rapamycin], the “increase in number of colonies (number of competent cells)” value (HT-p21 cells [3]) was ~10 fold, the “concentrations that inhibited S6 phosphorylation” value [4] was ≥ 20 nM and the “concentration required for anti-hypertrophic effects” value (HT-p21 cells [5]) was 100 to 500 nM. For the same compound, the “doubling time of the competent cells” value (HT-p21 cells [6]; I/w and I+R/w conditions) was 20 to 24 h and the “PC (preservation of competence)” value (HT-p21 cells [6]; IPTG plus rapamycin 3 days, washed, 5 more days, percent of IPTG alone) was 800%.
